Experimental data taken from patent US8592421B2, “Cyclic bioisosters of purine system derivatives and a pharmaceutical composition based thereon” (priority 2003, dated 2013).
Marks after values point to notes of the source that are not given here.

Columns and labels:
[1] = tested on: plasma hemostasis; assay: Thrombin time after intravenous administration; assay type: in vivo, rabbit
Description: The investigations were performed on 72 rabbits of the “Chinchilla” breed with a mass of 2.5±0.3 kg, who were administered which solutions of compounds 2, 15, 21, 37 in doses of 15, 30 and 60 mg/kg intravenously. The experiments included the thrombin-test (series No. 7300) and the coagulability-test (series No. 5000) purchased from the scientific-and-production association (SPA) “Renam”, thromboplastin (series No. 240600) and calcium chloride purchased from the SPA “MedioLab”
The static parameters of the blood and plasma coagulation (partial activated thromboplastin time, thrombin time, maximum coagulation activity (test for auto coagulation) were determined using the Behnk Electronic coagulometer (Germany). The operating principle of this instrument is based on the fact that the formed blood clot breaks the contacts of the pulse counter in the flask-pin circuit, said pin permanently oscillating in a vertical plane. The moment of formation of the clot is registered by stopping the stop watch hand.
The measurements were effected at a constant temperature of 37° C. maintained by a temperature control unit.
The “thrombin time” characterizes the rate of transformation of fibrinogen into fibrin. It was determined by measuring the coagulation time of plasma deprived of thrombocytes under the effect of thrombin standardized by the control plasma.
0.2 ml of a thrombin solution was added to 0.2 ml of the test blood plasma of experimental animals, from whom the blood was taken 15, 30, 60 and 120 minutes after the intravenous administration of compounds 2, 15, 21, 37 according to the invention in doses of 15, 30, 60 mg/kg incubated for 1 minute at a temperature of 37° C. and the time of formation of clot T2 in seconds in a coagulometer of the Behnk Electronic Company (Germany).

[2] = tested on: embryonic fibroblasts of mouse NIH-3T3; assay: Effect on endocellular pHi of fibroblasts (microspectrofluorimetry with FDA / BCECF-AM); assay type: cell-based; settings: for rise of pHi: fibroblasts in an attached spread state; for change of pHi: medium DME without blood serum, 20 minutes; for increase of pHi of cytosol: medium with 10.0% blood serum, 20 minutes after addition
Description: The effect of the compounds according to the invention on the endocellular pH, embryonic fibroblasts of mouse NIH-3T3 supplied by the All-Russian Collection of Cellular Cultures of the Institute of Cytology of the Russian Academy of Sciences St. Petersburg was investigated. The cells were grown in the DMEM (Sigma) medium containing 2.2 g/l of sodium bicarbonate with addition of 80.0 mkg/ml of gentamicin and 10.0% embryonal veal serum at a temperature of 37° C. in an atmosphere containing 5.0% of carbon dioxide. For these experiments use was also made of a medium buffer with 5.0 mM of HEPES and 15.0 mM of sodium bicarbonate without serum or with addition of 5.0% serum. The cells were calculated with the help of a hemocytometer. A share of the dead cells was determined by colouring trypan blue.
The measurements of the endocellular pHi were carried out with the help of colorants FDA (Sigma) and BCECF-AM (Calbiochem) on a microspectrofluorimeter by a standard technique (Koshevoy Yu. V., Akatov V. S., Grobova M. E. Microspectrofluorimeter for measuring endocellular pH (micro pH)”. Devices and equipment for studies in the field of physical-and-chemical biology and biotechnology. Pushchino, 1990. P. 8-14).
The cells at a temperature of 37° C. were colored within 5 minutes with 5.0 mkM PDA that before the colouring was prepared from a 10.0 mM solution in acetone by dilution for 30 minutes in a phosphatic buffer to 0.1 mM or 2.0 mkM 1.0 mM solution BCECF-AM in DMSO.
The two-wave method of determining pHi was used based on the ratio intensities of fluorescence of the cells on two wavelengths (Akatov V. S. et all), “Endocellular pH and substrate dependence of proliferation of fibroblasts of Chinese hamster, Cytology, 1991, 33 (7), p. 86-94). The fluorescence was excited by light at λ=490 nm, the emission was recorded simultaneously with two photomultipliers on wavelengths λ=535 nm and λ=570 nm. The K-ratio of the fluorescence on two wavelengths was determined with a deduction of the background fluorescence of the medium near the investigated cells for 40-60 individual cells, which are then averaged taking into account the measurement error. A thermostatically controlled table was used that allowed measurements to be conducted at a temperature of 37° C. An account was taken for the photodynamic damage of the pigmented cells during long-time continuous illumination by excited light. The readings were taken from a section of the preparation exposed to light for not more than 5 minutes.
The calibration curves for determining the absolute pHi values by magnitude K were constructed using the Thomas technique (Thomas J. A., Bushbaum R. N., Zimniak A. w Racker E. “Intracellular pH measurements in Ehrlich ascites tumor cells utilizing spectroscopic probe generated in situ”, Biochemistry, 1979, v. 18, p. 2210-2218), for which case the pigmented cells treated for 5-10 minutes with carboxyacidic nigericyn (Calbiochem) at a concentration of 5-10 mkg/ml was placed in a solution with a high content of potassium—130 mM KCl, 1.0 mM MgCl2, 20.0 mM of HEPES) and with pH values from 6.2 to 7.6. The K values were measured in the media with different pH assuming that pHi of the cells equals to the pH of the medium due to the action of nigericyn, which exchanges potassium ions for protons and at a high content of potassium in the medium counterbalances the pH of the medium and cells. Calibration curves were used based on the fluorescence of same medium with addition of 5.0 mkM of fluorescence or BCECF were used to the control the stability of the of the instrument readings.
The cells were colored by pigment BCECF-AM and pHi was measured 10 minutes after incubation in the medium with an appropriate pH value. […]

[3] = 15.0 mg/kg intravenously, after 15 minutes, control 15.8
[4] = 15.0 mg/kg intravenously, after 30 minutes, control 15.8
[5] = 15.0 mg/kg intravenously, after 60 minutes, control 15.8
[6] = 15.0 mg/kg intravenously, after 120 minutes, control 15.8
[7] = 30.0 mg/kg intravenously, after 15 minutes, control 14.7
[8] = 30.0 mg/kg intravenously, after 30 minutes, control 14.7
[9] = 30.0 mg/kg intravenously, after 60 minutes, control 14.7
[10] = 30.0 mg/kg intravenously, after 120 minutes, control 14.7
[11] = 60.0 mg/kg intravenously, after 15 minutes, control 15.2
[12] = 60.0 mg/kg intravenously, after 30 minutes, control 15.2
[13] = 60.0 mg/kg intravenously, after 60 minutes, control 15.2
[14] = 60.0 mg/kg intravenously, after 120 minutes, control 15.2

SMILES	thrombin time, T2 [1, 3]	thrombin time, T2 [1, 4]	thrombin time, T2 [1, 5]	thrombin time, T2 [1, 6]	thrombin time, T2 [1, 7]	thrombin time, T2 [1, 8]	thrombin time, T2 [1, 9]	thrombin time, T2 [1, 10]	thrombin time, T2 [1, 11]	thrombin time, T2 [1, 12]	thrombin time, T2 [1, 13]	thrombin time, T2 [1, 14]	rise of pHi ([2]; 2.0 mkg/ml, on the average) [unit pHi]	rise of pHi ([2]; 20.0 mkg/ml, on the average) [unit pHi]	change of pHi ([2]; 0.02 mkg/ml)	change of pHi ([2]; 0.2 mkg/ml)	change of pHi ([2]; 2.0 mkg/ml, on the average) [unit pHi]	change of pHi ([2]; 20.0 mkg/ml, on the average) [unit pHi]	change of pHi ([2]; 200 mkg/ml)	change of pHi ([2]; 1000 mkg/ml)	also measured
Nc1cccc2c(=O)[nH][nH]c(=O)c12.[Na] [Compound 15, sodium salt of 5-amino-benzo[d]-3H-pyridazine-1,4-dione]	17.0* s	18.5* s	16.5* s	15.5* s	19.7* s	20.5* s	21.3* s	15.0* s	16.8* s	18.0* s	16.5* s	14.7* s	0.10	0.07	no effect was found	no effect was found	0.08	0.08	no effect was found	no effect was found	increase of pHi of cytosol ([2]; 0.02 mkg/ml): do not initiate a change of pH; increase of pHi of cytosol ([2]; 0.2 mkg/ml, on the average): 0.1 unit pH; increase of pHi of cytosol ([2]; 2.0 mkg/ml, on the average): 0.12 unit pH; increase of pHi of cytosol ([2]; 20.0 mkg/ml): do not initiate a change of pH
O=c1[nH]n([C@@H]2O[C@H](CO)[C@@H](O)[C@H]2O)c(=O)c2nc(O)cnc12.[Na].[Na] [Compound 23, disodium salt of 2-hydroxy-7-(β-D-ribofuranosile)pyrazine[2,3—Cl]-6H-pyridazine-5,8-dione]	–	–	–	–	–	–	–	–	–	–	–	–	0.10	0.07	no effect was found	no effect was found	0.08	0.08	no effect was found	no effect was found	increase of pHi of cytosol ([2]; 0.02 mkg/ml): do not initiate a change of pH; increase of pHi of cytosol ([2]; 0.2 mkg/ml, on the average): 0.1 unit pH; increase of pHi of cytosol ([2]; 2.0 mkg/ml, on the average): 0.12 unit pH; increase of pHi of cytosol ([2]; 20.0 mkg/ml): do not initiate a change of pH
Nc1ccnc2c(=O)n([C@@H]3O[C@H](CO)[C@@H](O)[C@H]3O)[nH]c(=O)c12 [Compound 2, 4-amino-7-(β-D-ribofuranosile)pyrido[2,3-d]-6H-pyridazine-5,8-dione]	16.2* s	17.0* s	16.0* s	15.3* s	17.8* s	18.4* s	19.2* s	15.3* s	16.0* s	16.9* s	15.9* s	15.3* s	–	–	–	–	–	–	–	–	–
Nc1cnc2c(=O)n([C@@H]3O[C@H](CO)[C@@H](O)[C@H]3O)[nH]c(=O)c2n1.[Na] [Compound 21, sodium salt of 3-amino-7-(β-D-ribofuranosile)pyrazine[2,3-d]-6H-pyridazine-5,8-dione]	16.4* s	17.7* s	16.1* s	15.7* s	17.9* s	18.8* s	19.0* s	15.6* s	16.2* s	17.7* s	16.3* s	15.7* s	–	–	–	–	–	–	–	–	–
Nc1ncc2c(=O)[nH][nH]c(=O)c2n1 [Compound 36, 2-amino-pyrimido[4,5-d]-6H-pyridazine-5,8-dione]	–	–	–	–	–	–	–	–	–	–	–	–	0.10	0.07	no effect was found	no effect was found	0.08	0.08	no effect was found	no effect was found	increase of pHi of cytosol ([2]; 0.02 mkg/ml): do not initiate a change of pH; increase of pHi of cytosol ([2]; 0.2 mkg/ml, on the average): 0.1 unit pH; increase of pHi of cytosol ([2]; 2.0 mkg/ml, on the average): 0.12 unit pH; increase of pHi of cytosol ([2]; 20.0 mkg/ml): do not initiate a change of pH
O=c1[nH][nH]c(=O)c2c(Br)ncnc12.[K] [Compound 37, potassium salt of 4-bromine-pyrimido[4,5-D]-6H-pyridazine-5,8-dione]	16.9* s	18.2* s	16.3* s	15.6* s	19.5* s	20.3* s	21.0* s	15.2* s	16.6* s	17.8* s	16.2* s	15.0* s	–	–	–	–	–	–	–	–	–
